# Test results as given in patent publication US20230012368A1 (Hoffmann-La Roche Inc., priority 2018, published 2023).
# Structures can show the parent of a compound that is named as a salt.
# System: Acinetobacter baumannii ATCC 17978
# Assay: Antimicrobial susceptibility testing: 90% growth inhibitory concentration (IC90) determination
# Type: cell-based
# Conditions: 90% growth inhibitory concentration; Acinetobacter baumannii ATCC17978; Iso-Sensitest broth, OD 600 nm over 16h; read-out: ATCC17978 IC90
# How it was run: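 Growth of the Acinetobacter baumannii strain was followed by optical density at 600 nm every 20 minutes for 16h at 35±2° C. Inoculum was ~5×10^(5) CFU/ml in Iso-Sensitest medium, with twofold compound dilutions (e.g. 50 to 0.097 μM final). The 90% inhibitory concentration was derived in log-phase growth.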
row,IC90 [nM],SMILES
1,290,"COc1ccc(-c2cnc3c(Nc4ccc(C(=O)N(C)CCCC(=O)N5CCNCC5)c(C)c4)nccn23)cc1F [Example 4, 4-[[3-(3-fluoro-4-methoxy-phenyl)imidazo[1,2-a]pyrazin-8-yl]amino]-N,2-dimethyl-N-(4-oxo-4-piperazin-1-yl-butyl)benzamide]"

# Same assay, conditions: Acinetobacter baumannii, ATCC17978, 16 h, 90% growth inhibitory concentration; Acinetobacter baumannii ATCC17978; Iso-Sensitest broth, OD 600 nm over 16h; read-out: ATCC17978 IC90
row,SMILES,IC90 [nM]
1,"CNC(=O)c1ccc(Nc2nccn3c(-c4ccc(OC)c(Cl)c4)cnc23)cc1 [Example 181, 4-[[3-(3-chloro-4-methoxyphenyl)imidazo[1,2-a]pyrazin-8-yl]amino]-N-methylbenzamide;2,2,2-trifluoroacetic acid]",1300
2,"COc1ccc(-c2cnc3c(Nc4ccc(C(=O)N(C)CCN5CCCCC5)c(C)c4)nccn23)cc1F [Example 267, 4-[[3-(3-fluoro-4-methoxyphenyl)imidazo[1,2-a]pyrazin-8-yl]amino]-N,2-dimethyl-N-(2-piperidin-1-ylethyl)benzamide]",5400
3,"CCc1cc(Nc2nccn3c(-c4ccc(OC(F)F)cc4)cnc23)ccc1C(=O)N(C)CCN1CCNCC1 [Example 224, 4-[[3-[4-(difluoromethoxy)phenyl]im-idazo[1,2-a]pyrazin-8-yl]amino]-2-ethyl-N-methyl-N-(2-piperazin-1-ylethyl)benzamide;hydrochlo-ride]",1100
4,"COc1ccc(-c2cnc3c(Nc4ccc(C(=O)NCCNC(=O)N5CCN[C@@H](C(=O)O)C5)c(C)c4)nccn23)c(F)c1F [Example 352, (2R)-4-[2-[[4-[[3-(2,3-difluoro-4-methoxyphenyl)imidazo[1,2-a]pyrazin-8-yl]amino]-2-methylbenzoyl]amino]ethyl-carbamoyl]piperazine-2-carboxylic acid;formic acid]",1300
5,"C=Cc1cc(Nc2nccn3c(-c4ccc(OC(F)F)cc4)cnc23)ccc1C(=O)N(C)CCN1CCNCC1 [Example 217, 4-[[3-[4-(difluoromethoxy)phenyl]im-idazo[1,2-a]pyrazin-8-yl]amino]-2-ethenyl-N-methyl-N-(2-piperazin-1-ylethyl)benzamide;hydrochlo-ride]",840
6,"CNC(=O)c1ccc(Nc2nccn3c(-c4ccc(OC)cc4)cnc23)cc1C [Example 14, 4-((3-(4-methoxyphenyl)imidazo [1,2-a]pyrazin-8-yl)amino)-N,2-dimethylbenzamide]",120
7,"CNC(=O)c1ccc(Nc2nccn3c(-c4ccc(OC(F)F)cc4)cnc23)cc1CCO [Example 190, 4-[[3-[4-(difluoromethoxy)phenyl]im-idazo[1,2-a]pyrazin-8-yl]amino]-2-(2-hydroxyethyl)-N-methylbenzamide]",330
8,"COc1ccc(-c2cnc3c(Nc4ccc(C(=O)NCCCC[C@H](N)C(=O)O)c(C)c4)nccn23)c(F)c1F [Example 349, (2S)-2-amino-6-[[4-[[3-(2,3-difluoro-4-methoxyphenyl)imidazo[1,2-a]pyrazin-8-yl]amino]-2-methylbenzoyl]amino]hexa-noic acid;2,2,2-trifluoroacetic acid]",1100
9,"Cc1cc(Nc2nccn3c(-c4ccc(OC(F)F)cc4)cnc23)ccc1C(=O)NCCCN1CCOCC1 [Example 209, 4-[[3-[4-(difluoromethoxy)phenyl]im-idazo[1,2-a]pyrazin-8-yl]amino]-2-methyl-N-(3-morpholin-4-ylpropyl)benzamide]",590
10,"CCc1cc(Nc2nccn3c(-c4ccc(OC(F)F)c(F)c4F)cnc23)ccc1C(=O)NCCNC(=O)CN(C)C [Example 294, 4-[[3-[4-(difluoromethoxy)-2,3-difluorophenyl]imidazo[1,2-a]pyrazin-8-yl]amino]-N-[2-[[2-(dimethylamino)acetyl]amino]ethyl]-2-ethylbenzamide]",140
11,"CCc1cc(Nc2nccn3c(-c4ccc(OC)c(F)c4F)cnc23)ccc1C(=O)NCCNC(=O)[C@@H](N)CO [Example 373, N-[2-[[(2S)-2-amino-3-hydroxypropanoyl]amino]eth-yl]-4-[[3-(2,3-difluoro-4-methoxyphenyl)imidazo[1,2-a]pyrazin-8-yl]amino]-2-ethylbenzamide]",150
12,"COc1ccc(-c2cnc3c(Nc4ccc(C(=O)N(C)C)cc4)nccn23)cc1 [Example 231, 4-[[3-(4-methoxyphenyl)imidazo[1,2-a]pyrazin-8-yl]amino]-N,N-dimethylbenzamide]",400
13,"CCc1cc(Nc2nccn3c(-c4ccc(OC(F)F)cc4)cnc23)ccc1C(=O)NC [Example 183, 4-[[3-[4-(difluoromethoxy)phenyl]im-idazo[1,2-a]pyrazin-8-yl]amino]-2-ethyl-N-methylbenzamide]",190
14,"COc1ccc(-c2cnc3c(Nc4ccc(C(=O)NCCN5CCNCC5)c(C)c4)nccn23)c(F)c1F [Example 377, 4-[[3-(2,3-difluoro-4-methoxyphenyl)imidazo[1,2-a]pyrazin-8-yl]amino]-2-methyl-N-(2-piperazin-1-ylethyl)benzamide]",180

# Now from value to molecule:
row,IC90 [nM],SMILES
1,50,"COc1ccc(-c2cnc3c(Nc4ccc(C(=O)NCCCCN)c(C)c4)nccn23)c(F)c1F [Example 513, N-(4-aminobutyl)-4-((3-(2,3-difluoro-4-methoxyphenyl)imidazo[1,2-a]pyrazin-8-yl)amino)-2-methylbenzamide hydrochloride]"
2,950,"CCc1cc(Nc2nccn3c(-c4ccc(Cl)c(F)c4F)cnc23)ccc1C(=O)NCCCN1CCC1 [Example 386, N-[3-(azetidin-1-yl)propyl]-4-[[3-(4-chloro-2,3-difluorophenyl)imidazo[1,2-a]pyrazin-8-yl]amino]-2-ethylbenzamide]"
3,530,"CCc1cc(Nc2nccn3c(-c4ccc(Oc5ccc(OC)cn5)c(F)c4F)cnc23)ccc1C(=O)NCCNC(=O)[C@@H](N)CCNC(=N)N [Example 449, N-[2-[[(2S)-2-amino-4-guanidino-butanoyl]amino]ethyl]-4-[[3-[2,3-difluoro-4-[(5-methoxy-2-pyridyl)oxy]phenyl]imidazo [1,2-a]pyrazin-8-yl]amino]-2-ethyl-benzamide; formic acid]"
4,940,"COc1ccc(-c2cnc3c(Nc4ccc(C(=O)NCCNC(=O)[C@@H]5CCNC[C@@H]5O)c(C)c4)nccn23)c(F)c1F [Example 459, (3R,4R)-N-[2-[[4-[[3-(2,3-difluoro-4-methoxy-phenyl)imidazo[1,2-a]pyrazin-8-yl]amino]-2-methyl-benzoyl]amino]ethyl]-3-hydroxy-piperidine-4-carboxamide; formic acid]"
5,480,"CCc1cc(Nc2nccn3c(-c4ccc(Oc5cnn[nH]5)c(F)c4F)cnc23)ccc1C(=O)NCC1CCN(CC2CCNC2)CC1 (stereo not shown) [Example 557, 4-[[3-[2,3-difluoro-4-(1#H!- triazol-5-yloxy)phenyl]imidazo[1,2-a]pyrazin-8-yl]amino]-2-ethyl-#N!-[[1-(pyrrolidin-3-ylmethyl)piperidin-4-yl]methyl]benzamide;formic acid]"
6,23,"N#CCOc1ccc(-c2cnc3c(Nc4ccc(C(=O)NCCCCCN)c(Cl)c4)nccn23)c(F)c1F [Example 496, N-(5-aminopentyl)-2-chloro-4-[[3-[4-(cyanomethoxy)-2,3-difluorophenyl]imidazo[1,2-a]pyrazin-8-yl]amino]benzamide]"
7,220,"COc1ccc(-c2cnc3c(Nc4ccc5c(c4)CCCNC5=O)nccn23)cc1F [Example 390, 7-[[3-(3-fluoro-4-methoxy-phenyl)imidazo[1,2-a]pyrazin-8-yl]amino]-2,3,4,5-tetrahydro-2-benzazepin-1-one hydrochloride]"
